From US10774112B2, “Biomimetic peptide and biodegradable delivery platform for the treatment of angiogenesis- and lymphangiogenesis-dependent diseases” (THE JOHNS HOPKINS UNIVERSITY, priority 2013, dated 2020)

Columns and labels:
[1] = system: hepatocyte growth factor (HGF) signaling; assay: HGF signaling in vitro in MEC; type: cell-based; settings: FIG. 6
[2] = system: insulin growth factor 1 (IGF1) signaling; assay: IGF1 signaling in vitro in MEC; type: cell-based; settings: FIG. 6
[3] = system: insulin growth factor 1 (IGF1) signaling; assay: IGF1 signaling in vitro in LEC; type: cell-based; settings: FIG. 6
[4] = system: HGF signaling; assay: HGF signaling in MDA-MB-231 cells; type: cell-based, human; settings: FIG. 8
[5] = system: lymphatic endothelial cell (LEC); assay: LEC tube formation assay; type: cell-based; settings: FIG. 5
[6] = system: human retinal endothelial cells (HREC); assay: Proliferation assay (WST-1), HREC; type: cell-based; settings: FIG. 2
Experimental: (§1) A colorimetric based proliferation assay using WST-1 (Roche, 11644807001) proliferation reagent was carried out using HREC cells, HUVEC cells, and the breast cancer cells MDA-MB-231, MCF-7, and SUM149. 2000 cells/well were plated in 96-well plates and allowed to adhere overnight. On the following day, the media was exchanged with fully supplemented media containing peptides or equivalent DMSO vehicle for the controls. Three days later, the media containing the peptides was replaced with serum-free EBM-2 media containing WST-1 reagent and the plates were incubated for four hours as per the manufacturer's recommendations. Changes in color, due to the formazan dye resulted from the cleavage of the tetrazolium salt WST-1 by the mitochondrial succinate-tetrazolium reductase, were read on a Victor V fluorescence plate reader (Perkin Elmer, Mass.) by measuring the absorbance at 450 nm. Dose response curves of percent live cells (in comparison to untreated cells, but incubated in complete media with 0.2% DMSO) were created. Assays were performed in at least two independent replicates and each replicate was performed using three experimental triplicates.

[7] = system: triple-negative breast cancer cell line MDA-MB-231; assay: Proliferation assay (WST-1), MDA-MB-231; type: cell-based, human; settings: in vitro; FIG. 7
Experimental: as §1

[8] = system: human umbilical vein endothelial cells (HUVEC); assay: Adhesion assay (RT-CIM), HUVEC; type: cell-based; settings: FIG. 1
Experimental: (§2) Similar to the migration assays, the inhibition activity of the peptide in cellular adhesion was assessed using the RT-CIM technology. In this case, 25,000 cells/well were plated in 16 wells E-plates (Roche, Basel Switzerland) in the presence or absence of the peptide. The adhesion was monitored over time (3 hours) by measuring changes in the electrical impedance, which is a direct measure of the cells adhering on the electrodes. Assays were performed in at least two independent replicates and each replicate was performed using two experimental duplicates.

[9] = system: human retinal endothelial cells (HREC); assay: Adhesion assay (RT-CIM), HREC; type: cell-based; settings: FIG. 2
Experimental: as §2

[10] = system: neovasculature in laser induced CNV; assay: CNV regression model; type: in vivo, mice; settings: mouse eye; free peptide; FIG. 14
Experimental: Bruch's membranes of both eyes of C57BL/6J mice were ruptured with a laser after anesthetizing the mice and dilating their pupils with 1% tropicamide. Seven days later, some mice were sacrificed to establish baseline neovascularization. At that time, 1 μg of SP2043 (SEQ ID NO: 1) was administered in one eye and vehicle in the fellow eye of other mice. Seven days later, all animals were perfused with fluorescein-labeled dextran, eyes removed, the retina dissected and flatmounted after making radial cuts, and fluorescence was measured. The images were digitized using a 3-color charge-coupled device video camera and a frame grabber and the area of hypervascularization was quantified by image-analysis software.

[11] = system: triple-negative breast cancer cell line SUM149; assay: Proliferation assay (WST-1), SUM149; type: cell-based; settings: in vitro; FIG. 7
Experimental: as §1

[12] = Accumulation in tumor and organs after systemic intravenous injection; type: in vivo; settings: systemically intravenously injected; FIG. 31

## LRRFSTAPFAFIDINDVINF (Artificial sequence based on human Collagen Type IV protein) [SP2043]
[1]
  HGF signaling in MEC: inhibit
[2]
  IGF1 signaling in MEC: inhibit
[3]
  IGF1 signaling in LEC: inhibit
[4]
  HGF signaling in MDA-MB-231 cells: inhibit
[5]
  LEC tube formation: inhibit
[6]
  proliferation of HREC: inhibit
[7]
  proliferation of MDA-MB-231: inhibit
[8]
  adhesion of HUVEC: inhibit
[9]
  adhesion of HREC: inhibit
[10]
  regression of the neovasculature in laser induced CNV model: caused regression
[11]
  proliferation of SUM149: inhibit
[12]
  accumulation in tumor and other organs: accumulated in tumor as well as other organs
